From a melting point compilation (Tetko et al.) come the findings set out here.

`CC(C)c1ccc(CCNC(=O)CCl)cc1` came in with a melting point of 54 to 56 °C. In the case of `O=C(O)c1nnn(-c2ccc(Br)cc2)c1C(F)(F)F` it was 169 to 171 °C. In turn, `NC(=O)Cn1cnc(-c2ccccc2)c1N` came in with a melting point of 209 to 211 °C. Take `Oc1ccnc2cc(F)c(F)cc12`: the melting point lay in the range of 298 to 300 °C. For the compound `Cc1ccc(C(=O)O)cc1NC(=O)NC(C)(C)C`, the melting point was in the range of 336 to 338 °C. The same measure for `CC(C)n1c(N)nnc1S`: 189 to 191 °C.

In turn, `Cc1cncc(C(=O)O)c1O` gave a melting point of 249 to 251 °C. For `CN1CCN(c2cccc(C#N)n2)CC1`, the melting point was in the range of 59 to 61 °C. The compound `O=C(O)c1ccc(F)c(S)c1` yielded a melting point of 163 to 165 °C. The same measure for `O=Cc1cc[nH]c1`: 59 to 61 °C; for `CC(C)(C)OC(=O)N1CC(=O)NC2CNCCC21` (configuration not stated): 144 to 146 °C; for `Fc1cc(CBr)c2ncccc2c1`: 96 to 98 °C. `O=C1C=C2NCCC=C2O1` registered a melting point of 109 to 111 °C. The same measure for `OC(c1ccc(Cl)cc1)c1cccnc1` (configuration not stated): 106 to 108 °C; for `Nc1cccc(N2CCNC2=O)c1`: 149 to 151 °C; for `O=C(CC(F)(F)F)c1ccc(F)cc1F`: 46 to 48 °C. In the case of `Cc1ccn(-c2ccc(Cl)nn2)n1` it was 169 to 171 °C; in that of `O=C(c1ccc(Br)c([N+](=O)[O-])c1)N1CCOCC1`, 114 to 116 °C. In the case of `COC(=O)c1cnc2[nH]nc(C)c2c1` it was 185 to 187 °C; in that of `CN(C)c1cccc(Oc2ccc(C(N)=S)cc2)c1`, 182 to 184 °C; in that of `FC(F)(F)CN1CCNc2ccccc21`, 62 to 64 °C. Compound `O=Cc1cc(Br)ccc1OCc1ccccc1` came in with a melting point of 61 to 63 °C. `Clc1nnc(-c2ccccc2)c2ccccc12` gave a melting point of 156 to 158 °C. In the case of `CNC(c1ccc(Cl)cc1)c1ncccn1` (configuration not stated) it was 67 to 69 °C; in that of `Cc1ccc(NS(=O)(=O)c2c[nH]c(C(=O)O)c2)c(C)c1`, 218 to 220 °C. For `Sc1ccc(-c2ccccc2)cc1`, the melting point was in the range of 106 to 108 °C. In the case of `CC(=O)N1CCC(N)CC1` it was 19 to 21 °C; in that of `CC(C)(C)OC(=O)NC1(CO)CC1`, 75 to 77 °C. In the case of `O=C(Nc1nccs1)C1CCCNC1` (configuration not stated) it was 178 to 180 °C; in that of `O=C(O)C1CCSC1` (configuration not stated), 60 to 62 °C.

`O=CC(Br)C=Nc1nccs1` (configuration not stated) returned a melting point of 137 to 139 °C. The same measure for `c1ccc2sc(NCCCN3CCOCC3)nc2c1`: 182 to 184 °C. `CNS(=O)(=O)c1cc(C(=O)O)ccc1F` came in with a melting point of 209 to 211 °C. Turning to `CCC(C#N)(CC)NC(=O)OC(C)(C)C`, the melting point lay within 98 to 100 °C. The same measure for `CCOC(=O)c1cc(Br)cc(F)c1N`: 48 to 50 °C; for `COc1cc(CC#N)cc(Br)c1OC(F)F`: 200 to 203 °C; for `O=C(O)c1ccc2c(c1Cl)C(=O)c1ccccc1C2=O`: 199 to 201 °C. The same measure for `O=C(NC1CC1)c1cc(Br)c[nH]1`: 144 to 146 °C; for `CC(C)(C)c1ccc(C2(C(=O)O)CCCC2)cc1`: 189 to 191 °C; for `CC(C)(C)OC(=O)N1CCC(C(=O)O)(C(=O)O)C1`: 131 to 133 °C.

`CCc1cccc(N2CC(C(=O)O)CC2=O)c1` (configuration not stated) displayed a melting point of 120 to 122 °C. Compound `Cc1nc(-c2cccc([N+](=O)[O-])c2)no1` displayed a melting point of 108 to 110 °C. Consider `O=C(O)CCc1ccc2c(c1)OCCCO2`, for which the melting point was 81 to 83 °C. In the case of `COc1cc(C=O)cc2sc(=O)oc12` it was 160 to 162 °C; in that of `COC(=O)Nc1ccc(N)cc1`, 89 to 91 °C. In the case of `Nc1cccc(CS(=O)(=O)Cc2ccccc2)c1` it was 120 to 122 °C; in that of `O=S(=O)(Cl)c1cc2c(cc1Br)OCCCO2`, 105 to 107 °C; in that of `Nc1ccc(Oc2cnccn2)cc1`, 138 to 140 °C. `CCCC(=O)c1cccc([N+](=O)[O-])c1` yielded a melting point of 59 to 63 °C. In the case of `Nc1cccc(C(=O)Nc2cccc(F)c2)c1` it was 123 to 125 °C; in that of `CCc1cc2oc(=O)cc(CCl)c2cc1Cl`, 170 to 172 °C; in that of `CNS(=O)(=O)C1CCNCC1`, 168 to 170 °C. In the case of `O=S1(=O)CCCN1c1cccc(Br)c1` it was 74 to 76 °C; in that of `O=Cc1coc2ccc(F)cc2c1=O`, 95 to 97 °C. In the case of `COc1cc(C#N)ccc1OCC(=O)O` it was 154 to 156 °C; in that of `CN(C)c1ccc(C(=O)O)cc1[N+](=O)[O-]`, 198 to 200 °C. Take `NS(=O)(=O)c1cccc(NC(=O)Oc2ccccc2)c1`: the melting point was 193 to 195 °C. The same measure for `C1CCc2nnc(C3CCCN3)n2CC1` (configuration not stated): 91 to 93 °C; for `O=C(O)CNc1ccc(C(=O)O)cc1`: 266 to 268 °C. The same measure for `O=C(O)c1cc(S(=O)(=O)NCc2ccccn2)c(Cl)cc1Cl`: 231 to 233 °C. Consider `COc1cc(C(C)=O)ccc1OC(F)F`, for which the melting point lay in the range of 65 to 67 °C. The compound `Cc1sc(C(=O)O)cc1CS(C)(=O)=O` gave a melting point of 233 to 235 °C. The same measure for `CS(=O)(=O)c1ccc(Br)c(S(=O)(=O)Cl)c1`: 160 to 162 °C; for `O=S(=O)(c1cccnc1)N1CCNCC1`: 88 to 90 °C. In the case of `O=C1CCN(c2ccc(Cl)cc2)CC1` it was 54 to 56 °C. The same measure for `CC(Cl)C(=O)NC(C)c1ccccc1` (configuration not stated): 89 to 91 °C; for `NCc1nnc2n1CCCC2`: 99 to 101 °C; for `NC(=O)CCn1c(S)nnc1-c1cccs1`: 219 to 221 °C. Regarding `O=C(O)c1cccnc1-n1cnc2ccccc21`, the melting point was in the range of 249 to 251 °C. Turning to `Cc1ccc(C)n1-c1ccc(C(=O)O)cc1`, the melting point was 213 to 215 °C. `CCN(CC)S(=O)(=O)c1ccc(NC)c(N)c1` displayed a melting point of 119 to 121 °C.

In turn, `Nc1nncc(-c2ccccc2F)n1` returned a melting point of 204 to 206 °C. `O=C(O)COc1ccc(C(F)(F)F)cc1` displayed a melting point of 184 to 186 °C. Compound `O=C1CCN(C2CC2)CCN1` returned a melting point of 98 to 100 °C. In the case of `ClCc1nc(-c2ccc(Br)s2)no1` it was 42 to 44 °C; in that of `N#Cc1ccc2nc(Cl)ccc2c1`, 208 to 210 °C; in that of `O=C(NCc1ccccc1)c1cccc(O)c1`, 140 to 142 °C. As for `CC(=O)c1ccc(N)cc1C`, the melting point is 83 to 85 °C.

Turning to `CC(Cl)C(=O)c1ccc(C(C)(C)C)cc1` (configuration not stated), the melting point is 18 to 20 °C. On to `COC(=O)COc1c(C)cc(C=O)cc1C`, for which the melting point fell in the range of 50 to 52 °C. `CN1CCN(C(=O)CO)CC1`: the melting point is 56 to 58 °C.

`Cc1ccccc1Cc1cnc(N)s1` yielded a melting point of 102 to 104 °C.

In turn, `N#CCN1CCSCC1` registered a melting point of 51 to 53 °C. The compound `CC(C)(C)OC(=O)NCCCn1ccc2cc(C(=O)O)ccc21` came in with a melting point of 172 to 174 °C. The compound `COc1ccccc1-n1cc(-c2ccc(Cl)cc2Cl)nc1S` yielded a melting point of 244 to 246 °C. Take `N#Cc1ccc(OCc2ccc(C(=O)O)o2)cc1`: the melting point lay in the range of 203 to 205 °C.

As for `O=C(O)c1cnc(-c2ccco2)s1`, the melting point fell in the range of 237 to 239 °C.

What is called melting point is the temperature, or range, at which the solid turns liquid.
